Values quoted from earlier work, collected in patent publication US9155756B2, “Method for the prevention and treatment of sepsis” (Universiteit Maastricht, priority 2011, dated 2015).

How the values were obtained:
[1] = system: patients with septic shock; details: low dose for 5-7 days
[2] = system: patients with severe sepsis

Compound | Clinical outcome [1] | Number needed to treat (NNT) for reduced mortality ([2]; patients with multi-organ failure, large randomized clinical trials) | Mortality ([2]; severe sepsis, decreased from about 31%)
C[C@]12CCC(=O)C=C1CC[C@@H]1[C@@H]2[C@@H](O)C[C@@]2(C)[C@H]1CC[C@]2(O)C(=O)CO [hydrocortisone] | improved outcomes | – | –
drotrecogin alfa | – | 16 | about 25%
